Results from ChEMBL document CHEMBL1201862, “PubChem BioAssay data set” (2004).
The source made the active and inactive calls.

How the values were obtained:
P388/ADR = assay: cells; type: functional; conditions: Mus musculus
SN12K1 = assay: cells; type: functional; conditions: Homo sapiens
P388 = assay: cells; type: functional; conditions: Mus musculus
[1] = molecular target: T1, Ubiquitin-conjugating enzyme E2 N (Homo sapiens, UniProt P61088); type: functional;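 note: Dose-response confirmation in a TR-FRET assay detecting UBC13-driven polyubiquitin chain formation, inhibition measured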
T1 sequence (P61088 whole entry): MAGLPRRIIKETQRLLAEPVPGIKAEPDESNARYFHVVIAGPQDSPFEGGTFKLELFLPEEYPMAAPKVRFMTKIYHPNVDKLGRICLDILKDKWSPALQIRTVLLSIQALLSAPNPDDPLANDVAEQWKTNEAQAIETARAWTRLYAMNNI

[2] = Luminescence Cell-Based Dose Retest to Confirm Inhibitors of Cancer Stem Cells. [Related pubchem assays (depositor defined):AID2717, AID2721]; type: functional; conditions: Homo sapiens
[3] = cytotoxicity toward NIH3T3 fibroblasts, dose response, counter-screen, cell-based, ATP luminescence, mouse fibroblasts (AID 2010); type: functional;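 note: cells exposed to compound for about 90 hours before reading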
INS1 = assay: beta cell apoptosis inhibitors, cytokine rescue, dose response, luminescence, retest (AID 449756); type: functional, cell-based; conditions: Rattus norvegicus;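 note: cell death triggered by IL-1 beta plus TNF-alpha plus IFN-gamma mixture; protective hits raise ATP signal compared with cytokine alone wells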
[4] = inhibitors of intracellular T. cruzi replication, confirmation, NIH3T3 host cells, beta-gal luminescence (AID 2044); type: functional, cell-based;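 note: intracellular parasites grown in NIH/3T3 mouse fibroblasts as host cells; luminescent beta-galactosidase reporter signal from transgenic T. cruzi replicating inside host cells; inhibitors lower the luminescence signal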
[5] = molecular target: T2, RNA-binding protein pos-1 (Caenorhabditis elegans, UniProt G5EF15); assay: inhibitors of POS-1/mex-3 RNA binding, dose response, biochemical, fluorescence polarization (AID 1964);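 note: purified POS-1 fused to maltose binding protein made in E. coli; potency of compounds blocking POS-1 binding to fluorescent RNA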
T2 sequence (G5EF15 whole entry): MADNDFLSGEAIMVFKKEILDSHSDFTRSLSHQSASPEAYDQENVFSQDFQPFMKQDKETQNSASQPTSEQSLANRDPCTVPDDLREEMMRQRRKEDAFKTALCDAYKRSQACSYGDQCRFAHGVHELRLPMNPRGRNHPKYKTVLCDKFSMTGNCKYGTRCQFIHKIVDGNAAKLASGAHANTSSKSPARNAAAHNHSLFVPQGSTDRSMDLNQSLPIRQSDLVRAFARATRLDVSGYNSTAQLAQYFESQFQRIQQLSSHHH

[6] = molecular target: T3, Replicative DNA helicase DnaB (Mycobacterium tuberculosis, UniProt P9WMR3); assay: DnaB intein splicing inhibitors, dose response, biochemical, cell-free fluorescence (AID 449749); type: functional
T3 sequence (P9WMR3 whole entry): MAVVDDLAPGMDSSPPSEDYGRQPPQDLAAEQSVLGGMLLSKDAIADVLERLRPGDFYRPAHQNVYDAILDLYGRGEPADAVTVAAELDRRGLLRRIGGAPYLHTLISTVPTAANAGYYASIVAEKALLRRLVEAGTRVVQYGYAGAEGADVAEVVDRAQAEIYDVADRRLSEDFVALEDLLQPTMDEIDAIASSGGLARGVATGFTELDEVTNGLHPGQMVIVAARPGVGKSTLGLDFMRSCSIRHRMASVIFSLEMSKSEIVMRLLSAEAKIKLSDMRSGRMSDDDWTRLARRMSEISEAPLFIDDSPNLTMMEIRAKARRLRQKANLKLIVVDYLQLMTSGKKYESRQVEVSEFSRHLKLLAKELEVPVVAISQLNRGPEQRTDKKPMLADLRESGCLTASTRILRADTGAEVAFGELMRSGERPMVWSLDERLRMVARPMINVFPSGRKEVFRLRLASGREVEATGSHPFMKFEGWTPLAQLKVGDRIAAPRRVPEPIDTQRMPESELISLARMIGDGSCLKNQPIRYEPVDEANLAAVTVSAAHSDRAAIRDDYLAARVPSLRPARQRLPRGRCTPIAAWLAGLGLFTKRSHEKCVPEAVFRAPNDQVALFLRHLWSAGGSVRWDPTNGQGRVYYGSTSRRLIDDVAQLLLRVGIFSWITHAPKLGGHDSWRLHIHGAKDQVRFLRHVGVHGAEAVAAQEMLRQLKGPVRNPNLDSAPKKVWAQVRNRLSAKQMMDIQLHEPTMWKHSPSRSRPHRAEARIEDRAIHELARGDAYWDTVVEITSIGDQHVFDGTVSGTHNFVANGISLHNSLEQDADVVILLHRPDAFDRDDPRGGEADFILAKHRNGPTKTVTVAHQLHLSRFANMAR

Aminopeptidase N = molecular target: T4, Aminopeptidase N (Plasmodium falciparum FcB1/Columbia, UniProt O96935); assay: P. falciparum M1AAP inhibitors, biochemical, fluorogenic H-Leu-NHMec substrate, 1536-well (AID 1445); parameters: species or system Plasmodium falciparum 3D7, 3D7
T4 sequence (O96935 whole entry): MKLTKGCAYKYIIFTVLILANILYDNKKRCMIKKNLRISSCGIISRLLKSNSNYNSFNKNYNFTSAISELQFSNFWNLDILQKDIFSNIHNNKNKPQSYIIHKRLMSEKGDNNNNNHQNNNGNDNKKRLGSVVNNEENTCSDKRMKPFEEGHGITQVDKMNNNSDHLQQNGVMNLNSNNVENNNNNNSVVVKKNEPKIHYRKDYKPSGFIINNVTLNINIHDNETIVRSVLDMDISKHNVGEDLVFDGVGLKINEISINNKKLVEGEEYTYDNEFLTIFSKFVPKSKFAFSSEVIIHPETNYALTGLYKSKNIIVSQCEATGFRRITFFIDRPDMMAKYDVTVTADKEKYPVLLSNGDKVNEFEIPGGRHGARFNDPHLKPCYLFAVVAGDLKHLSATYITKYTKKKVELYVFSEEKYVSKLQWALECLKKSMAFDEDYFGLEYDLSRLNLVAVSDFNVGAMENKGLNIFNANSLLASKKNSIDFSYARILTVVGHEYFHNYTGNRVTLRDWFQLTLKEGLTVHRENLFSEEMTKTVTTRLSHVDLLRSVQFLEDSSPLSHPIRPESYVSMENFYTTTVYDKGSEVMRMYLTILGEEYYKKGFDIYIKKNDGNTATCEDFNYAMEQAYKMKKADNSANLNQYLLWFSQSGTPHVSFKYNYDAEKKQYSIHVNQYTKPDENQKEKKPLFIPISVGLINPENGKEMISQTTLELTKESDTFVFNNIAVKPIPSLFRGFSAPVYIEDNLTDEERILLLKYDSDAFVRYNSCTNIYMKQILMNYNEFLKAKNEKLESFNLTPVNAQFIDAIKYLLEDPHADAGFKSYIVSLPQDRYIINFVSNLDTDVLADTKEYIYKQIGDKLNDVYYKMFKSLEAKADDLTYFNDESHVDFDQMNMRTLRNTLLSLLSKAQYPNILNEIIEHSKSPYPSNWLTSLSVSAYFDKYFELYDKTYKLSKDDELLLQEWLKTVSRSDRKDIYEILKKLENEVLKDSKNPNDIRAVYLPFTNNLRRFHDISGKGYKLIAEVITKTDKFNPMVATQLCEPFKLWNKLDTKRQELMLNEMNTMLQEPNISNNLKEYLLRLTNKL

[7] = molecular target: T5, Zinc finger protein mex-5 (Caenorhabditis elegans, UniProt Q9XUB2); assay: MEX-5/TCR-2 RNA interaction inhibitors, dose response, biochemical, C. elegans, fluorescence polarization (AID 1960)
T5 sequence (Q9XUB2 whole entry): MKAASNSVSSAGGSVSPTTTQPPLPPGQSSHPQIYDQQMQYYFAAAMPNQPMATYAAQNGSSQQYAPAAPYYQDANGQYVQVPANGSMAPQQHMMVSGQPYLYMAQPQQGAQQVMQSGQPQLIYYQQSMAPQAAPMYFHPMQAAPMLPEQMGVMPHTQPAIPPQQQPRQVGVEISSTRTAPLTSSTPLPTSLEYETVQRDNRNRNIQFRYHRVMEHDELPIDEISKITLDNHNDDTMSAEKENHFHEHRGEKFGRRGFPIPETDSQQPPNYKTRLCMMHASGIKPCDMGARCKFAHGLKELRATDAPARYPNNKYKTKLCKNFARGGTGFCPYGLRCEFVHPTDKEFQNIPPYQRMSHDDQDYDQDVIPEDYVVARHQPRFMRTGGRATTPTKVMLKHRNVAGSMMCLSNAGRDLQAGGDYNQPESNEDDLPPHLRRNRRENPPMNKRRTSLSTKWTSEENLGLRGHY

Protein RecA = molecular target: T6, Protein RecA (Mycobacterium tuberculosis, UniProt P9WHJ3); assay: Fluorescence Cell-Free Homogeneous Dose Retest to Identify Inhibitors of RecA-Intein Splicing Activity. [Related pubchem assays (depositor defined):AID2097, AID2223, AID489010, AID492950]; type: functional
T6 sequence (P9WHJ3 whole entry): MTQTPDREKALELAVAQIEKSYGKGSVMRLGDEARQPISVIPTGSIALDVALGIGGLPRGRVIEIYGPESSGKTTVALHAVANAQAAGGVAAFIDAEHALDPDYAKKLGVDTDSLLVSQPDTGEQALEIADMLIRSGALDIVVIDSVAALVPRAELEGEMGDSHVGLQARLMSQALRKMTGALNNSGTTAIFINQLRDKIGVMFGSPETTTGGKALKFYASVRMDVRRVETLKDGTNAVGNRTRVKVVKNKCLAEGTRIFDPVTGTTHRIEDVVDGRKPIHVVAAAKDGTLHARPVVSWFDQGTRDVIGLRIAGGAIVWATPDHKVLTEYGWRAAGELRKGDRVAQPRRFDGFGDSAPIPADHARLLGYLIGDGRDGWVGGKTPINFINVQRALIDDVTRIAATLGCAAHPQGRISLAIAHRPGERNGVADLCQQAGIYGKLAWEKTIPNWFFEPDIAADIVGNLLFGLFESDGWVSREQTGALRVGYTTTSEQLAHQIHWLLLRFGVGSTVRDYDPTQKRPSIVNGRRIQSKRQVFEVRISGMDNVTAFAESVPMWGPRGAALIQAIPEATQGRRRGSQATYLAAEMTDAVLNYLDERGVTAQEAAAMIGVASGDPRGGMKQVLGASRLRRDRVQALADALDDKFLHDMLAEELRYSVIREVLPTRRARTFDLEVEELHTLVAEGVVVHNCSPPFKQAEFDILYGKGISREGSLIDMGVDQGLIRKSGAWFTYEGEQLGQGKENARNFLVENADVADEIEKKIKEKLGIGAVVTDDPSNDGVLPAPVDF

| SMILES | GI50 (P388/ADR) | GI50 (SN12K1) | GI50 (P388) | further results |
| --- | --- | --- | --- | --- |
| COc1cc(C2c3cc4c(cc3[C@@H](Nc3ccccc3)C3COC(=O)[C@H]23)OCO4)cc(OC)c1O (some centres undefined) | 0.0344 µM (active) | < 0.0164 µM (active) | < 0.01 µM (active) | – |
| Cc1ccc(C(C(=O)NCC2CCCO2)N(C(=O)c2snc(C(N)=O)c2N)c2ccccc2F)o1 (centres undefined) | – | – | – | IC50 [1]: > 20 µM (inactive) |
| CCCCCOc1ccc(/C=N\c2ccc(CCc3ccc(/N=C/c4ccc(OCCCCC)cc4)cc3)cc2)cc1 | – | > 100 µM (inactive) | > 100 µM (inactive) | – |
| O=c1c2cc(Br)ccc2[nH]c(=S)n1-c1ccccc1 | – | – | – | IC50 [1]: > 20 µM (inactive) |
| CN(C)CCNC(=O)c1cccc2c(=O)c3ccccc3oc12 | 28 µM (inactive) | 19.7 µM (inactive) | 15 µM (inactive) | – |
| Cc1cc(O)c2c(=O)c3c(O)cc(O)c4c5c(O)cc(O)c6c(=O)c7c(O)cc(C)c8c1c2c(c34)c(c78)c65 [HYPERICIN] | 49.2 µM (inactive) | 92.7 µM (inactive) | 11.9 µM (inactive) | – |
| CCN1CCN(S(=O)(=O)c2ccc(Cl)c(C(=O)N(C)Cc3cccs3)c2)CC1 | – | – | – | IC50 [1]: > 20 µM (inactive) |
| O=C(O)/C=C/C(=O)N1C/C(=C\c2ccccc2)C(=O)/C(=C/c2ccccc2)C1 | 13.8 µM (inactive) | 1.82 µM (inactive) | 11.9 µM (inactive) | – |
| C=C(C)C(=O)/N=C(\N)NC#N | 10.4 µM (inactive) | 26.4 µM (inactive) | 3.72 µM (inactive) | – |
| O=C(NC(NC(=S)Nc1ccccc1)C(Cl)(Cl)Cl)c1cccc(Cl)c1 (centres undefined) | – | – | – | AC50 [2]: 4.73 µM (active); EC50 [3]: > 60 µM (not active); AC50 (INS1): 8.54 µM (active); EC50 [4]: 2.31 µM (active) |
| COC(=O)[C@@]12OC[C@]34[C@H]([C@@H](O)[C@@H]1O)[C@@]1(C)CC(=O)C(O)=C(C)[C@@H]1C[C@H]3OC(=O)[C@H](OC(=O)/C=C(\C)C(C)C)[C@@H]24 [BRUCEANTIN] | 0.0244 µM (active) | 0.02 µM (active) | 0.021 µM (active) | – |
| CSC[S+]([O-])C[C@H](CO)NC(=O)/C=C/c1c(C)[nH]c(=O)[nH]c1=O (some centres undefined) | 1 µM (active) | 1.31 µM (inactive) | 0.416 µM (active) | – |
| Cc1[nH][nH]c(=O)c1C(c1cc([N+](=O)[O-])ccc1O)c1c(C)[nH][nH]c1=O | – | – | – | EC50 [5]: 64.5 µM (active); AC50 [6]: 0.399 µM (active); IC50 (Aminopeptidase N): 30.1 µM (active); EC50 [7]: 16.7 µM (active); EC50 (Protein RecA): 0.262 µM (active) |
| O=C(CCN1CCCCC1)C(=Cc1ccccc1)C(=O)CCN1CCCCC1 | 25.9 µM (inactive) | 52.4 µM (inactive) | 15.6 µM (inactive) | – |
| CCn1c(=O)cc(C(F)(F)F)[nH]c1=S | – | – | – | IC50 [1]: > 20 µM (inactive) |
